From patent US7947695B2, “5-membered annelated heterocyclic pyrimidines as kinase inhibitors” (Janssen Pharmaceutica NV, priority 2005, dated 2011)

Key:
Type in all cases: biochemical
[1] = target: CDK4/cyclinD1 (Homo sapiens, UniProt P11802); assay: In vitro filtration assay for CDK4 inhibitory activity (pRb phosphorylation, [33P]-ATP); conditions: GST-pRb substrate, 1 μM unlabeled ATP, 25° C. 45 minutes, read-out: cdk4 filter (pIC50) (converted)
Procedure: (§1) Compounds of the present invention were tested in an in vitro filtration assay assessing CDK4 activity by means of its pRb-phosphorylation activity using [^33P]-ATP as phosphor donor. The radioactive phosphorylated pRb is then captured on filtermats and the incorporated [^33P] quantitated using a phosphorage storage screen.
The CDK4 kinase reaction is performed at 25° C. for 45 minutes in a 96-well microtiterplate. The 25 μl reaction volume contains 50 mM Hepes pH 7.5, 10 mM NaF, 10 mM MgCl2, 1 mM Na3VO4, 1 μM unlabeled ATP, 1 mM DTT, 0.5 μCi AT^33P, 0.76 μg/well GST-pRb, 50 ng CDK4/cyclinD1/well and 0.2% compound in 100% DMSO.
(§2) The reaction is stopped by adding 5 μl of a 3% phosphoric acid solution. 10 μl of the reaction mixture is then spotted onto a Filtermat P30 filter (Wallac) and washed 3 times for 5 min. in 75 mM phosphoric acid and 1 time for 5 min. in methanol prior to drying and quantification on the Typhoon (Amersham) using a phosphorage storage screen.
(§3) For each experiment, controls (containing enzyme (complex) and DMSO without compound), a blank incubation (containing DMSO but no enzyme (complex) or compound) and samples (containing enzyme (complex) and compound dissolved in DMSO) were run in parallel. All compounds tested were dissolved and eventually further diluted in DMSO. […] In each test, the blank value was subtracted from both the control and the sample values. The control sample represented maximal enzyme activity. For each sample, the amount of cpm was expressed as a percentage of the mean cpm value of the controls. When appropriate, IC50-values (concentration of the drug, needed to reduce the enzyme activity to 50% of the control) were computed using linear interpolation between the experimental points just above and below the 50% level. Herein the effects of test compounds are expressed as pIC50 (the negative log value of the IC50-value).

[2] = target: T1, AURORA A (Homo sapiens, UniProt O14965); assay: In vitro filtration assay for AURORA A inhibitory activity; conditions: Kemptide substrate, 1 μM unlabeled ATP, 25° C. 40 minutes, read-out: Aurora A see C.2 (pIC50) (converted)
T1 sequence (O14965 1-403): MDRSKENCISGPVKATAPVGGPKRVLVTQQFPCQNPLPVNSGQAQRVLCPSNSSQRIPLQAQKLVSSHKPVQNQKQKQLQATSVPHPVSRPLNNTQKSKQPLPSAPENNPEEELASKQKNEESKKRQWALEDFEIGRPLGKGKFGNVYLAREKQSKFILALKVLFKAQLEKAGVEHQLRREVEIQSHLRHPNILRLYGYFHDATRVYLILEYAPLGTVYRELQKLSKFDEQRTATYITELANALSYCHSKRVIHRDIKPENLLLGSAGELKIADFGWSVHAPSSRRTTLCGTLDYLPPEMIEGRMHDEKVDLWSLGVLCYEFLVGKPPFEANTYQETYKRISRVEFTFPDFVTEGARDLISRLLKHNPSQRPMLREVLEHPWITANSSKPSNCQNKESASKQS
Procedure: as §1, with “AURORA A” for “CDK4”, “substrate-phosphorylation” for “pRb-phosphorylation”, “substrate” for “pRb”
The Aurora-A kinase reaction is performed at 25° C. for 40 minutes in a 96-well microtiterplate. The 25 μl reaction volume contains 12 mM MOPS pH 7, 0.4 mM EDTA, 0.002% Brij35, 1% glycerol, 0.02% beta-mercapto-ethanol, 0.2 mg/ml BSA, 1 μM unlabeled ATP, […] [^33P]-ATP, 200 μM Kemptide, 3 ng Aurora A/well and 0.2% compound in 100% DMSO.
as §2, §3

[3] = target: AURORA B (Homo sapiens, UniProt Q96GD4); assay: In vitro filtration assay for AURORA B inhibitory activity; conditions: peptide (C(LRRWSLG)×4), 1 μM unlabeled ATP, 25° C. 40 minutes, read-out: Aurora B see C.3 (pIC50) (converted)
Sequence of AURORA B (Q96GD4 whole entry): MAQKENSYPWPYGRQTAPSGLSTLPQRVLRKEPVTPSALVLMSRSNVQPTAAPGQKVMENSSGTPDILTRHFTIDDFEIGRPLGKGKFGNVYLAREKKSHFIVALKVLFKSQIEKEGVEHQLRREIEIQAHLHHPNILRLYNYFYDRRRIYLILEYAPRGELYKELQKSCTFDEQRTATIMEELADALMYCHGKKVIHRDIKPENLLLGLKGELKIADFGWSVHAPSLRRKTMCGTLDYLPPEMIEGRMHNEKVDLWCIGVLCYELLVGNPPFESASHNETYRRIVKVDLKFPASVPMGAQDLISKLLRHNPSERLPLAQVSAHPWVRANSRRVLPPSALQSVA
Procedure: as §1, with “AURORA B” for “CDK4”, “substrate-phosphorylation” for “pRb-phosphorylation”, “substrate” for “pRb”
The Aurora-B kinase reaction is performed at 25° C. for 40 minutes in a 96-well microtiterplate. The 25 μl reaction volume contains 60 mM Hepes pH 7.5, 3 mM MgCl2, 3 mM MnCl2, 3 μM Na3VO4, 50 μg/ml PEG20000, 1 μM unlabeled ATP, 1 mM DTT, 0.2 μCi AT^33P, 0.25 μg/well peptide (C(LRRWSLG)×4),100 ng Aurora-B/well and 0.2% compound in 100% DMSO. The reaction is stopped by adding 5 μl of a 3% phosphoric acid solution. 10 μl of the reaction mixture is then spotted onto a Filtermat P30 filter (Wallac) and washed 3 times for 5 min. in 75 mM phosphoric acid and 1 time for 5 min. in methanol prior to drying and quantification on the Typhoon (Amersham) using a phosphorage storage screen.
as §3

Sequence of CDK4/cyclinD1 (P11802 whole entry): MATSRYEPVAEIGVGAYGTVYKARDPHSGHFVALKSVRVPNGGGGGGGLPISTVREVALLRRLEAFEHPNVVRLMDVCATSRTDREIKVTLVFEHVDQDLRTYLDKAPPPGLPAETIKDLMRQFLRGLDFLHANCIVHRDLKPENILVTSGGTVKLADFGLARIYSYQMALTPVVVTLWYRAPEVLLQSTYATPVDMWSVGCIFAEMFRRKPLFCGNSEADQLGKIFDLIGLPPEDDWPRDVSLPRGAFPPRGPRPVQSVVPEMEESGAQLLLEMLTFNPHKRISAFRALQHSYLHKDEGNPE
Sequence of CDK4/cyclinD1 (P24385 whole entry partner): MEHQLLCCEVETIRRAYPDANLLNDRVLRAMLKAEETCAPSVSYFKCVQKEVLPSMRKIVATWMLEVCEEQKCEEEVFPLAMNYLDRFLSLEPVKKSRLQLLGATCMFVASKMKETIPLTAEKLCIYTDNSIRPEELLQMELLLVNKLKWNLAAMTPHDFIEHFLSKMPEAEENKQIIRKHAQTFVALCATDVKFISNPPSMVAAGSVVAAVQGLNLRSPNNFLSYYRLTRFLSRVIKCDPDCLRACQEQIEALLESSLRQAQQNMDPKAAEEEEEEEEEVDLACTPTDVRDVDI

Structure (SMILES) | IC50 [1] [µM] | IC50 [2] [µM] | IC50 [3] [µM]
c1cc(Nc2ncc3cnn(C4CCCCC4)c3n2)ccc1CNCCN1CCOCC1 [Co. No. 4] | 0.00251 | 1 | > 1.58
CC(C)(O)CN1CCN(C(=O)c2ccc(Nc3ncc4cnn(C5CCCCC5)c4n3)cc2)CC1 [compound 58] | 0.631 | 0.126 | 1.26
CN1CCN(c2ccc(Nc3ncc4[nH]c(=O)n([C@H]5C[C@@H]6CC[C@H]5C6)c4n3)cc2)CC1 [compound 88] | 2 | 1.58 | > 10
NS(=O)(=O)N1CCN(c2ccc(Nc3ncc4cnn(C5CCCCC5)c4n3)cc2)CC1 [compound 21] | 0.0398 | 0.2 | 3.16
CN1CCN(Cc2ccc(N(C(=O)OC(C)(C)C)c3ncc4cnn(C5CCOCC5)c4n3)cc2)CC1 [compound 48] | > 10 | > 10 | > 10
CN1CCC(NCc2ccc(N(C(=O)OC(C)(C)C)c3ncc4cnn(C5CCOCC5)c4n3)cc2)CC1 [compound 72] | > 10 | > 10 | > 10
CC(C)(O)CN1CCN(c2ccc(Nc3ncc4cnn(C5CCCCC5)c4n3)cc2)CC1 [compound 24] | 0.126 | 0.251 | 3.16
CN1CCN(c2ccc(Nc3ncc4c(n3)N(C3CCCCC3)C(=O)C4)cc2)CC1 [compound 89] | 0.316 | 1.58 | 3.16
CN1CCN(c2ccc(Nc3ncc4cnn([C@H]5C[C@@H]6CC[C@H]5C6)c4n3)cc2)CC1 [compound 16] | 0.0316 | 0.398 | > 10
CN1CCN(Cc2ccc(Nc3ncc4cnn(C5CCCCC5)c4n3)cc2)CC1 [Co. No. 2] | 0.00316 | 0.501 | > 10
c1ccc(N2CCN(Cc3ccc(Nc4ncc5cnn(C6CCCCC6)c5n4)cc3)CC2)nc1 [compound 35] | 0.1 | 0.251 | > 10
O=C(NC1CCOCC1)c1ccc(Nc2ncc3cnn(C4CCCCC4)c3n2)cc1 [compound 95] | 0.794 | 0.126 | 0.631
O=c1[nH]c2cnc(Nc3ccc(N4CCOCC4)nc3)nc2n1C1CCCCC1 [compound 81] | 5.01 | > 10 | > 10
OCCN1CCN(Cc2ccc(Nc3ncc4cnn(C5CCOCC5)c4n3)cc2)CC1 [compound 54] | 0.631 | > 10 | > 10
COCCCNC1CCN(Cc2ccc(Nc3ncc4cnn(C5CCCCC5)c4n3)cc2)CC1 [compound 47] | 0.0316 | 0.316 | 3.98
c1cc(Nc2ncc3cnn(C4CCCCC4)c3n2)ncc1N1CCOCC1 [compound 28] | 1 | 2.51 | > 10
COCCCC(=O)N1CCN(Cc2ccc(N(C(=O)OC(C)(C)C)c3ncc4cnn(C5CCCCC5)c4n3)cc2)CC1 [compound 44] | > 10 | > 10 | > 10
c1cc(N2CCNCC2)ccc1Nc1ncc2cnn(C3CCCCC3)c2n1 [compound 26] | 0.0158 | 0.251 | 1.26
CN1CCN(c2ccc(Nc3ncc4cnn(C5CCCCC5)c4n3)cc2Cl)CC1 [compound 18] | 0.251 | 0.158 | > 10

Structure (SMILES) | IC50 [1] [µM] | IC50 [2] [µM] | IC50 [3] [µM]
CN1CCN(Cc2ccc(N(C(=O)OC(C)(C)C)c3ncc4cnn([C@H]5C[C@@H]6CC[C@H]5C6)c4n3)cc2)CC1 [compound 39] | 1.58 | 6.31 | > 10
CN1CCN(c2ccc(Nc3ncc4[nH]c(=O)n(C5CCCCC5)c4n3)cc2Cl)CC1 [compound 84] | 0.631 | 6.31 | > 10
CN1CCN(C(=O)c2ccc(Nc3ncc4cnn([C@H]5C[C@@H]6CC[C@H]5C6)c4n3)cc2)CC1 [compound 57] | 0.1 | 0.1 | 7.94
CC(C)(O)CN1CCC(NCc2ccc(Nc3ncc4cnn(C5CCCCC5)c4n3)cc2)CC1 [compound 63] | 0.0251 | 1 | 2.51
CC(C)(O)CN1CCN(Cc2ccc(Nc3ncc4cnn(C5CCCCC5)c4n3)cc2)CC1 [compound 38] | 0.0126 | 1 | 2
COCCCN1CCN(Cc2ccc(N(C(=O)OC(C)(C)C)c3ncc4cnn(C5CCCCC5)c4n3)cc2)CC1 [compound 42] | > 10 | > 10 | > 10
CC(C)(C)OC(=O)N1CCN(c2ccc(Nc3ncc4cnn(C5CCCCC5)c4n3)nc2)CC1 [compound 29] | 6.31 | > 10 | > 10
CC(C)(O)CN1CCC(NC(=O)c2ccc(Nc3ncc4cnn(C5CCCCC5)c4n3)cc2)CC1 [compound 98] | 0.398 | 0.316 | –
c1cc(Nc2ncc3cnn(C4CCOCC4)c3n2)ccc1CN1CCOCC1 [compound 51] | 5.01 | 1 | > 10
c1cc(Nc2ncc3cnn(C4CCCCC4)c3n2)ccc1CNC1CCOCC1 [compound 67] | 0.251 | 1.58 | 1
CC(C)(C)OC(=O)N(c1ccc(CNCCN2CCOCC2)cc1)c1ncc2cnn(C3CCOCC3)c2n1 [compound 70] | > 10 | > 10 | > 10
COCCCN1CCN(Cc2ccc(Nc3ncc4cnn(C5CCCCC5)c4n3)cc2)CC1 [compound 43] | 0.0631 | 0.126 | 3.98
CC(C)(C)OC(=O)N(c1ccc(CNCCN2CCOCC2)cc1)c1ncc2cnn([C@H]3C[C@@H]4CC[C@H]3C4)c2n1 [compound 64] | 6.31 | > 10 | > 10
COCCCC(=O)N1CCN(Cc2ccc(Nc3ncc4cnn(C5CCCCC5)c4n3)cc2)CC1 [compound 45] | 0.398 | 0.2 | –
c1cc(Nc2ncc3cnn(C4CCCCC4)c3n2)ncc1N1CCNCC1 [compound 30] | 0.0501 | > 10 | > 10
COCCCN1CCN(c2ccc(Nc3ncc4c(n3)N(C3CCCCC3)C(=O)C4)cc2)CC1 [compound 90] | 0.316 | 1.58 | –
CC(C)(O)C(=O)N1CCN(c2ccc(Nc3ncc4cnn(C5CCCCC5)c4n3)cc2)CC1 [compound 31] | 0.0316 | – | –
CC(C)(C)OC(=O)N(c1ccc(CNC2CCOCC2)cc1)c1ncc2cnn(C3CCCCC3)c2n1 [compound 66] | 7.94 | – | > 10
CN1CCN(Cc2ccc(Nc3ncc4cnn(C5CCOCC5)c4n3)cc2)CC1 [compound 49] | 1.26 | 1.26 | –
